Reference: US11667602B2, “Compounds and their use” (AstraZeneca AB, priority 2020, dated 2023)
Where two headings read alike, the source gives them in different places.

Target: T1, human RXFP1 (Homo sapiens, UniProt Q9HBX9)
T1 sequence (Q9HBX9 1-757): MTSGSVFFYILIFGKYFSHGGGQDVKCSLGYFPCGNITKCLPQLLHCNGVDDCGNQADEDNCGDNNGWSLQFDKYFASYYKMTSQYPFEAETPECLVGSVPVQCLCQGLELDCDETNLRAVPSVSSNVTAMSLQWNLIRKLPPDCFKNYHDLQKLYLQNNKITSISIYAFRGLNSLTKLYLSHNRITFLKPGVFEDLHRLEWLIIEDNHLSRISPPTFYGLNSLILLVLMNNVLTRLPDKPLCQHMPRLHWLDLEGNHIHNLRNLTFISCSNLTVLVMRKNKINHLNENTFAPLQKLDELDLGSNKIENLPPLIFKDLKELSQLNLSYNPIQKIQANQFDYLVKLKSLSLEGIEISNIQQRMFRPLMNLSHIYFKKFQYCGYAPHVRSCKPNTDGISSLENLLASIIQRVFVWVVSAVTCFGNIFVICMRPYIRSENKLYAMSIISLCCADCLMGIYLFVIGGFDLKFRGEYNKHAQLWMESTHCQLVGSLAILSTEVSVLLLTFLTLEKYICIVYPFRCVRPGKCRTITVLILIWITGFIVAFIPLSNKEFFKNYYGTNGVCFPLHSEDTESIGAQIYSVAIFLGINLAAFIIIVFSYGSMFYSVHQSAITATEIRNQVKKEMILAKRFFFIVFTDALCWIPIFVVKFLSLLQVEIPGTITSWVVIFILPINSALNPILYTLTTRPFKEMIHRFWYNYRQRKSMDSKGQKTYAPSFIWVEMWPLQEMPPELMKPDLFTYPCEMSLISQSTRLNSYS
Test: RXFP1 Hu cAMP (Test A)
Assay type: cell-based
Design: expressed in transfected cells; host or cells: Jump-In T-REx CHO-K1 cells (ThermoFisher), induced with 10 ng/ml doxycycline for 24 h
How it was run: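 Competitive HTRF cAMP readout (2 h, room temperature) in CHO-K1 cells stably expressing human RXFP1, induced with 10 ng/ml doxycycline for 24 h; IBMX 0.5 mM final.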

[1] = RXFP1 Hu cAMP, read-out: Test A EC50

Row | Compound | Test A Sinf (RXFP1 Hu cAMP) [%] | EC50 [1] [nM] | EC50 (Test A EC50, RXFP1 Hu cAMP) [nM]
1 | COc1cc(F)c(-c2ccc(C(=O)O)nc2)cc1C(=O)N[C@H]1[C@@H](C(=O)Nc2cccc(S(=O)(=O)C(F)(F)F)c2)[C@@H]2C=C[C@H]1C2 (racemic) [Example 274, rac-5-(2-Fluoro-4-methoxy-5-(((1R,2R,3S,4S)-3-((3-((trifluoromethyl)sulfonyl)phenyl)carbamoyl)bicyclo[2.2.1]hept-5-en-2-yl)carbamoyl)phenyl)picolinic acid] | 61 | 5700 | 
2 | COc1cc(F)c(O[C@H]2CC[C@@](C)(C(=O)O)CC2)cc1C(=O)N[C@@H]1CCOC[C@@H]1C(=O)Nc1cccc(S(=O)(=O)C(F)(F)F)c1 (racemic) [Example 341] | 86 | 200 | 
3 | COc1cc(F)c(O[C@H]2CC[C@@](C)(C(=O)O)CC2)cc1C(=O)N[C@@H]1[C@@H](O)[C@@H](O)C[C@@H]1C(=O)Nc1cccc(S(=O)(=O)C(F)(F)F)c1 (racemic) [Example 394, (1R,4s)-4-(5-(((1SR,2RS,3SR,5SR)-2,3-Dihydroxy-5-((3-((trifluoromethyl)sulfonyl)phenyl)carbamoyl)cyclopentyl)carbamoyl)-2-fluoro-4-methoxyphenoxy)-1-methylcyclohexane-1-carboxylic acid] |  | > 40000 | 
4 | (1R,4s)-4-(2-Fluoro-4-methoxy-5-(((3S*,4R*)-4-(((1-methylcyclobutyl)methyl)carbamoyl)tetrahydrofuran-3-yl)carbamoyl)phenoxy)-1-(hydroxymethyl)cyclohexane-1-carboxylic acid [Example 581] | 94 |  | 
5 | COc1cc(C#N)c(OC2CCC(C)(C(=O)O)CC2)cc1C(=O)NC1C(C(=O)NCC2(C)CCC2)C2CCC1N2CCC(F)(F)F (single isomer, unassigned) [Example 537, (1R,4s)-4-(2-Cyano-4-methoxy-5-(((1S*,2S*,3R*,4R*)-3-(((1-methylcyclobutyl)methyl)carbamoyl)-7-(3,3,3-trifluoropropyl)-7-azabicyclo[2.2.1]heptan-2-yl)carbamoyl)phenoxy)-1-methylcyclohexane-1-carboxylic acid] | 77 | 6000 | 
6 | COc1cc(F)c(-c2ccc(C(=O)O)cc2)cc1C(=O)N[C@H]1[C@@H](C(=O)Nc2ccc(F)c(C#N)c2)[C@@H]2C=C[C@H]1C2 (racemic) [Example 309] | 80 | 4000 | 
7 | COc1cc(F)c(-c2cc(C(=O)O)ccn2)cc1C(=O)N[C@H]1[C@@H](C(=O)Nc2cccc(S(=O)(=O)C(F)(F)F)c2)[C@@H]2C=C[C@H]1C2 (racemic) [Example 277] | 122 | 7400 | 
8 | COc1cc(F)c(O[C@H]2CC[C@@](C)(C(=O)O)CC2)cc1C(=O)N[C@@H]1[C@H]2CC[C@H](C2)[C@@H]1C(=O)N[C@H](C)C(C)(C)C#N [Example 615] | 100 | 120 | 
9 | COc1cc(F)c(O[C@H]2CC[C@@](C)(c3noc(=O)[nH]3)CC2)cc1C(=O)N[C@@H]1[C@H]2CC[C@H](C2)[C@@H]1C(=O)NCC1(C)CCC1 [Example 418, (1R,2S,3R,4S)-3-(4-fluoro-2-methoxy-5-(((1s,4S)-4-methyl-4-(5-oxo-4,5-dihydro-1,2,4-oxadiazol-3-yl)cyclohexyl)oxy)benzamido)-N-((1-methylcyclobutyl)methyl)bicyclo[2.2.1]heptane-2-carboxamide] | 100 |  | 64
10 | COc1cc(F)c(O[C@H]2CC[C@@](C)(C(=O)O)CC2)cc1C(=O)N[C@@H]1[C@@H](OC)CC[C@@H]1C(=O)Nc1cccc(S(=O)(=O)C(F)(F)F)c1 (racemic) [Example 359] | 91 | 170 | 
11 | (1R,4s)-4-(2-Fluoro-4-methoxy-5-(((3S*,4R*)-4-(neopentylcarbamoyl)tetrahydrofuran-3-yl)carbamoyl)phenoxy)-1-methylcyclohexane-1-carboxylic acid [Example 567] | 86 |  | 
12 | (1R,4s)-4-(2-fluoro-4-methoxy-5-(((1S*,2S*,5S*)-2-methoxy-5-((3-((trifluoromethyl)sulfonyl)phenyl)carbamoyl)cyclopentyl)carbamoyl)phenoxy)-1-methylcyclohexane-1-carboxylic acid [Example 527] | 101 |  | 
13 | COc1cc(C#N)c(O[C@H]2CC[C@@](C)(C(=O)O)CC2)cc1C(=O)N[C@@H]1[C@H]2CC[C@H](C2)[C@@H]1C(=O)NCCC1CC1 [Example 133] | 100 | 450 | 
14 | COc1cc(F)c(OC2CCC(N)(C(=O)O)CC2)cc1C(=O)N[C@@H]1[C@H]2CC[C@H](C2)[C@@H]1C(=O)Nc1cccc(S(=O)(=O)C(F)(F)F)c1 (stereo partly drawn) [Example 458, 1-Amino-4-(2-fluoro-4-methoxy-5-(((1S,2R,3S,4R)-3-((3-((trifluoromethyl)sulfonyl)phenyl)carbamoyl)bicyclo[2.2.1]heptan-2-yl)carbamoyl)phenoxy)cyclohexane-1-carboxylic acid] | 104 | 110 | 
15 | COc1cc(F)c(OC2CCCC(C(=O)O)C2)cc1C(=O)N[C@@H]1[C@H]2CC[C@H](C2)[C@@H]1C(=O)Nc1cccc(S(=O)(=O)C(F)(F)F)c1 (single isomer, unassigned) [Example 447] | 94 | 830 | 
16 | COc1cc(F)c(O[C@H]2CC[C@@H](C(=O)O)CC2)cc1C(=O)N[C@H]1[C@H]2CC[C@H](C2)[C@H]1C(=O)Nc1cccc(S(F)(F)(F)(F)F)c1 [Example 510, (1R,4s)-4-(2-Fluoro-4-methoxy-5-(((1S,2S,3R,4R)-3-((3-(pentafluoro-6-sulfaneyl)phenyl)carbamoyl)bicyclo[2.2.1]heptan-2-yl)carbamoyl)phenoxy)cyclohexane-1-carboxylic acid] | 63 | 1600 | 
17 | COc1cc(F)c(-c2ccc(O)c(C(=O)O)c2)cc1C(=O)N[C@@H]1[C@H]2CC[C@H](C2)[C@@H]1C(=O)Nc1cccc(S(=O)(=O)C(F)(F)F)c1 (racemic) [Example 316, rac-2′-Fluoro-4-hydroxy-4′-methoxy-5′-(((1R,2S,3R,4S)-3-((3-((trifluoromethyl)sulfonyl)phenyl)carbamoyl)bicyclo[2.2.1]heptan-2-yl)carbamoyl)-[1,1′-biphenyl]-3-carboxylic acid] | 107 | 320 | 
18 | COc1cc(F)c(O[C@H]2CC[C@@](C)(C(=O)O)CC2)cc1C(=O)N[C@@H]1[C@H]2CC[C@H](C2)[C@@H]1C(=O)NCC1(C#N)CCC1 [Example 595] | 116 | 570 | 
19 | COc1cc(C#N)c(O[C@H]2CC[C@@](C)(C(=O)O)CC2)cc1C(=O)N[C@H]1[C@@H](C(=O)NCC2(C)CCC2)[C@H]2C=C[C@@H]1CC2 (racemic) [Example 469, (1R,4s)-4-(2-Cyano-4-methoxy-5-(((1RS,2SR,3RS,4SR)-3-(((1-methylcyclobutyl)methyl)carbamoyl)bicyclo[2.2.2]oct-5-en-2-yl)carbamoyl)phenoxy)-1-methylcyclohexane-1-carboxylic acid] | 99 | 36 | 
20 | COc1cc(F)c(O[C@H]2CC[C@@](C)(C(=O)O)CC2)cc1C(=O)N[C@@H]1[C@H]2CC[C@H](C2)[C@@H]1C(=O)NC1CC(F)(F)C1 [Example 619] | 103 | 390 | 
21 | COc1cc(F)c(O[C@H]2CC[C@@](C)(C(=O)O)CC2)cc1C(=O)N[C@@H]1[C@H]2CC[C@H](C2)[C@@H]1C(=O)NCC1(C(F)(F)F)CC1 [Example 614] | 96 |  | 
22 | COc1cc(C#N)c(O[C@H]2CC[C@@](C)(C(=O)O)CC2)cc1C(=O)Nc1cc(C)ccc1C(=O)NC12CC(C1)C2 [Example 173] | 126 | 190 | 
23 | COc1cc(C#N)c(O[C@H]2CC[C@@](C)(C(=O)O)CC2)cc1C(=O)Nc1cc(Cl)ccc1C(=O)N[C@H](C)C(C)(C)F [Example 162] | 107 | 69 | 
